The text below walks through data of patent US12490740B2, “Active compound combinations having insecticidal properties” (Bayer Aktiengesellschaft, priority 2019, dated 2025).

Like-named read-outs stand apart in the source and are kept apart here.

The test system of one data set is Phaedon cochleariae. Description: Phaedon cochleariae - spray test (cabbage leaves). Format: in vivo. The method, then:
(§1) The expected efficacy of a given combination of two compounds is calculated as follows (see Colby, S. R., “Calculating Synergistic and antagonistic Responses of Herbicide Combinations”, Weeds 15, pp. 20-22, 1967): • If • X is the efficacy expressed in % mortality of the untreated control for test compound A at a concentration of m ppm respectively m g/ha, • Y is the efficacy expressed in % mortality of the untreated control for test compound B at a concentration of n ppm respectively n g/ha, • E is the efficacy expressed in % mortality of the untreated control using the mixture of A and B at m and n ppm respectively m and n g/ha, • then is
(§2) If the observed insecticidal efficacy of the combination is higher than the one calculated as “E”, then the combination of the two compounds is more than additive, i.e. there is a synergistic effect.
Phaedon cochleariae—Spray Test
(§3) • Solvent: 7 parts by weight of dimethylformamide • Emulsifier: alkylaryl polyglycol ether
(§4) To produce a suitable preparation of active compound, 1 part by weight of active compound is mixed with the stated amount of solvent and is diluted with water, containing an emulsifier concentration of 1000 ppm, to the desired concentration. Further test concentrations are prepared by dilution with emulsifier containing water.
Cabbage leaves (Brassica oleracea) are treated by being sprayed with the preparation of the active compound of the desired concentration and are infested with mustard beetle larvae (Phaedon cochleariae).
After the specified period of time mortality in % is determined. 100% means all the beetle larvae have been killed and 0% means none of the beetle larvae have been killed. The mortality values determined thus are recalculated using the Colby-formula (see sheet 1).

The next data set has as its system Spodoptera frugiperda. Put plainly: Spodoptera frugiperda - spray test (cotton leaves). Format: in vivo. The method, then:
as §1, §2
Spodoptera frugiperda—Spray Test
as §3, §4
Cotton leaves (Gossypium hirsutum) are treated by being sprayed with the preparation of the active compound of the desired concentration and are infested with caterpillars of the fall army worm (Spodoptera frugiperda).
After the specified period of time mortality in % is determined. 100% means all the caterpillars have been killed and 0% means none of the caterpillars have been killed. The mortality values determined thus are recalculated using the Colby-formula (see above).

[1] abbreviates: Spodoptera frugiperda, 72 h, read-out: Mortality in % after 3 days.

Consider tetraniliprole, for which the “Mortality in % after 1 day” value in the data set on Phaedon cochleariae (0.12 ppm) was 10%; with Phaedon cochleariae (0.24 ppm, beetle larvae on sprayed cabbage leaves), 30%. For the same compound, the “Mortality in % after 2 days” value with Phaedon cochleariae (0.12 ppm) was determined as 40%; with Spodoptera frugiperda (0.06 ppm, after 2 days, caterpillars on sprayed cotton leaves), 20%. In addition, the “Mortality in % after 3 days” value is 30% with Spodoptera frugiperda (0.06 ppm) and 80% in the data set with Spodoptera frugiperda (0.12 ppm). In the data set with Spodoptera frugiperda (0.06 ppm, after 6 days), the “Mortality in % after 6 days” value was 60%.

Regarding `CS(=O)(=O)Oc1cccc(Cl)c1C1CC(c2csc(C3CCN(C(=O)Cn4nc(C(F)F)cc4C(F)F)CC3)n2)=NO1` (centres unmarked) [Fluoxapiprolin, fluoxapiprolin], in the data set on Phaedon cochleariae (3 ppm), the “Mortality in % after 1 day” value was 0% and the “Mortality in % after 2 days” value came to 0%. In addition, the “Mortality in % after 1 day” value with Phaedon cochleariae (6 ppm) is reported as 0%.

Broadly, the mortality is the share of the test organisms that died. As for `CON(C(=O)c1cn(C)nc1C(F)F)C(C)Cc1c(Cl)cc(Cl)cc1Cl` (racemic) [Pydiflumetofen, 3-(difluoromethyl)-N-methoxy-1-methyl-N—[(RS)-1-methyl-2-(2,4,6-trichlorophenyl)ethyl]-1H-pyrazole-4-carboxamide], the mortality at 1.5 ppm in the data set with Spodoptera frugiperda (Spodoptera frugiperda, 48 h, read-out: Mortality in % after 2 days) was 0%; with Spodoptera frugiperda (setting [1]), 0%; with Spodoptera frugiperda (Spodoptera frugiperda, 144 h, read-out: Mortality in % after 6 days), 0%. In the data set on Spodoptera frugiperda (setting [1]), the mortality at 3 ppm was determined as 0%.
